Experimental data from patent US10058587B2, “Peptide composition for cancer treatment by inhibiting TRPV6 calcium channel activity” (priority 2008, dated 2018).
pIC50, pKd: −log10 of the molar value. Where no end group is shown, it is not given here.

Experiments:
[1] = test system: HEY C2 ovarian cancer cell line; experiment: Induction of apoptosis (APO-ONE caspase 3/7) and cell viability (CellTiter Blue); assay type: cell-based, human; design: key to Decline in cell viability: decreased (+); or not (−)
Description: HeyC2 was cultured in RPMI 1640 medium supplemented with 1.0 mM sodium pyruvate, 0.01 mg/mL insulin and 10% (v/v) fetal bovine serum.
The levels of apoptotic induction and cell viability were determined by multiplexing the measurements for single samples. CellTiter Blue and APO-ONE assay systems from Promega allows the determination of cell viability correlated to cell number, and induction of apoptosis. This protocol uses a fluorgenic peptide that contains a peptide recognition-sequence for caspase 3 and caspase 7, […] proteolytic enzymes of the apoptosis cascade. The CellTiter Blue reagent was added to wells in a 96-well plate containing cells under test, immediately after addition of peptide solution or vehicle. About 5000 cells were plated into the wells the day before. At the chosen time (Day 1, Day 2 etc.) the fluorescence was measured at 590 nm (emission) after excitation at 560 nm. The caspase 3/7 activity was measured (485 nm Ex/527 nm Em) in the same wells after adding 120 uL of the Apo-ONE reagent, freeze fracturing at −80° C. for 1 hr, and incubating for 1 hr at room temperature.
For this work, the concentrations of SorC13 and SorC27 used were 0 uM, 1 uM, 10 uM and 100 uM. The experiments extended over a 5 to 7 day period. All measurements were done in quadruplicate with both a blank (no cells) and control (vehicle, no peptide) used to correct the test measurements. The time-response data, and the dose-response data were plotted as means±standard error of the mean. Any statistical comparisons were done with the Student's t-test or by ANOVA analysis over the dose course. The level of statistical significance was considered to be the 95% confidence interval (i.e., p≤0.05).

[2] = test system: PC3 and LnCaP clone FGC; experiment: Apoptosis and cell viability in prostate cancer cell lines (Example 10); assay type: cell-based, human; details: 0, 10 and 100 uM, 5 to 7 days
Description: For this work, the concentrations of SorC13 and SorC27 used are 0 uM, 10 uM and 100 uM. The experiments extend over a 5 to 7 day period. All measurements are done in quadruplicate with both a blank (no cells) and control (vehicle, no peptide) used to correct the test measurements. The time-response data, and the dose-response data are plotted as means±standard error of the mean.
The cell lines PC3 (from ATCC CRL-1435) and LnCaP clone FGC (from ATCC CRL-1740), obtained from the American Type Culture Collection (ATCC) and grown under the recommended conditions and in culture media recommended by ATCC. The cell lines are cultured under sterile conditions at 37° C., in a humidified 5% CO2 atmosphere.
Induction of apoptosis and attendant decrease is observed in cell viability in the cancer cell lines. From the large increases in the activities of the caspase3/7 activity, it is clear that there is a time dependent effect and a dose dependent effect on the induction of apoptosis.

[3] = Single dose acute intravenous bolus toxicity study with 5-day observation; assay type: in vivo, CD-1 mice
Description: A single dose acute intravenous bolus injection toxicity study followed by a 5-day observation period in CD-1 mice was performed as described below. Three doses of each of SorC13 and SorC27 were used (10, 100 and 500 mg/Kg). Daily cage-side exams for 5 days with hourly exams for the first 4 hrs post injection. As part of the analysis the following assessments were made: body weights prior to dosing and at termination; all animals were necropsied (including preparation of bone marrow smears); organ weights were taken of all animals.
After in vivo i.v. injection into CD1 mice, SorC13 caused a small spike (approximately 25%) in blood pressure in the first 15 min which disappeared by 1 hour.

[4] = Clearance route in iv mice; details: i.v.
[5] = biological target: T1, human TRPV6b (Homo sapiens, UniProt Q9H1D0); experiment: Whole-cell patch clamp of calcium store operated current (ISOC) through TRPV6 in transfected LnCaP cells; assay type: cell-based
T1 construct: expressed in transfected cells; host or cells: LnCaP (ATCC CRL-1740), human lymph node prostate cancer cells
T1 sequence (Q9H1D0 41-765 limits assumed): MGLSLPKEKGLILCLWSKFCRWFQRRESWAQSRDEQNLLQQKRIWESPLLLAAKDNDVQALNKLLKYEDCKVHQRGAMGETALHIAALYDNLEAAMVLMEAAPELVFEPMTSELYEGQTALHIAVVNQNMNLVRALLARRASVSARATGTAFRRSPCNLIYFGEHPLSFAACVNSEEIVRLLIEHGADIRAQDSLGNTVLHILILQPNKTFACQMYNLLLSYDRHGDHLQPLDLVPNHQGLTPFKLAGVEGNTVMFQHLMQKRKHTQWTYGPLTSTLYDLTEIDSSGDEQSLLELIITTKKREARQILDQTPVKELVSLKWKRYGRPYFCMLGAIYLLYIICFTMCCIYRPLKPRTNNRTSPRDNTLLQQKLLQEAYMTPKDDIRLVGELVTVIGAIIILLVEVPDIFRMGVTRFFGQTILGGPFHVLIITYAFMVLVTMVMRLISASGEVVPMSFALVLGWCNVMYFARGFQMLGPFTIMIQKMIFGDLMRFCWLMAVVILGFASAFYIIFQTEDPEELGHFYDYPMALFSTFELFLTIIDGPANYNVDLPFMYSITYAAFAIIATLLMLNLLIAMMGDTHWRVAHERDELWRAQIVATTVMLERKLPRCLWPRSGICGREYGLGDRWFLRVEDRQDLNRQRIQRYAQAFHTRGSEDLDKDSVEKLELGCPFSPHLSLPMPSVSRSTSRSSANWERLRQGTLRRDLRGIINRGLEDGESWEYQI
Description: An expression vector (pCAGS-IRES-hTRPV6b) (Bodding et al. 2003) containing the nucleotide code for human TRPV6b was transfected into and expressed by human lymph node prostate cancer (LnCaP, ATCC CRL-1740). Patch clamping with whole-cell current acquisition was used to measure the calcium current through this channel. Cells were treated and calcium store operated current (ISOC) was measured with either SorC13 (n=90) or SorC27 (n=30) in a closed-circuit perfusion for 3 min at each of cumulative concentrations of 0 (baseline), 100 nM, 500 nM 1 uM, 30 uM and 100 uM. Washout perfusion was done at 2 mL/min for 3 min. […] Further, both C-peptides are very strong inhibitors of calcium current through the TRPV6 channel with inhibition constants in the 100 nM range.

[6] = single i.v. 10, 100 and 500 mg/kg

EGKLSSNDTEGGLCKEFLHPSKVDLPR [SorC27]
Apoptosis Index (1 = no effect) ([1]; Day 6, SorC27 100 uM): 1.4
Apoptosis Index (1 = no effect) ([1]; Day 7, SorC27 10 uM): 2.2
Apoptosis Index (1 = no effect) ([1]; Day 7, SorC27 100 uM): 2.8
Decline in cell viability ([1]; SorC27): +
induction of apoptosis and cell viability [2]: induces apoptosis and decreases cell viability
Maximum Tolerated Dose in CD-1 mice by single i.v. dose ([3]; 10, 100 and 500 mg/kg doses): No toxic effects
adverse events over 5-day post-injection observation period [3, 6]: no adverse events
necropsy changes in major organ systems [3, 6]: no significant changes in all major organ systems
Clearance route in iv mice @ 5 mg/kg [4]: Rapid via kidney.
pIC50 [5]: 6.85
pKd [5]: 6.85

KEFLHPSKVDLPR [SorC13, KEFLHPSKVDLPR]
induction of apoptosis and cell viability [2]: induces apoptosis and decreases cell viability
